Results published in PubChem BioAssay AID330 (DTP/NCI, 2004).
Where “and” joins values, the source holds several entries; their conditions need not be identical. Identical values can stand only once. Toxic doses and inconclusive results are not listed. Square brackets hold non-standard residues; d marks the D form. Peptide text beside a SMILES is read from it. * marks the point of attachment. ξ: configuration not given here. Cbz = O=C(OCc1ccccc1)*; ξT = CC(O)C(N)C(=O)O; OBn = c1ccc(CO*)cc1

Tested on: P388 leukemia ip, CD2F1 mice, survival T/C
Assay: NCI In Vivo Anticancer Drug Screen. Data for tumor model P388 Leukemia (intraperitoneal) in CD2F1 (CDF1) mice
Conditions: endpoint: median survival time, higher = longer survival
Summary of the method: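 Mice carrying the transplanted tumor received test compound or vehicle. Survival was recorded in each group, and the value is the treated-group measurement divided by that of the vehicle-treated control group.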

[1] = dose: 50.0 mg/kg/injection, schedule: Q01DX005 (ip), vehicle: Klucel (hydroxypropylcellulose) (HPC)
[2] = dose: 100.0 mg/kg/injection, schedule: Q01DX005 (ip), vehicle: Klucel (hydroxypropylcellulose) (HPC)
[3] = dose: 200.0 mg/kg/injection, schedule: Q01DX005 (ip), vehicle: Klucel (hydroxypropylcellulose) (HPC)
[4] = dose: 60.0 mg/kg/injection, schedule: Q01DX005 (ip), vehicle: saline with Tween-80
[5] = dose: 120.0 mg/kg/injection, schedule: Q01DX005 (ip), vehicle: saline with Tween-80
[6] = dose: 240.0 mg/kg/injection, schedule: Q01DX005 (ip), vehicle: saline with Tween-80
[7] = dose: 12.5 mg/kg/injection, schedule: Q01DX009 (ip), vehicle: saline with Tween-80
[8] = dose: 25.0 mg/kg/injection, schedule: Q01DX009 (ip), vehicle: saline with Tween-80
[9] = dose: 50.0 mg/kg/injection, schedule: Q01DX005 (ip), vehicle: saline with Tween-80
[10] = dose: 50.0 mg/kg/injection, schedule: Q01DX009 (ip), vehicle: saline with Tween-80
[11] = dose: 100.0 mg/kg/injection, schedule: Q01DX005 (ip), vehicle: saline with Tween-80
[12] = dose: 100.0 mg/kg/injection, schedule: Q01DX009 (ip), vehicle: saline with Tween-80
[13] = dose: 200.0 mg/kg/injection, schedule: Q01DX005 (ip), vehicle: saline with Tween-80
[14] = dose: 200.0 mg/kg/injection, schedule: Q01DX009 (ip), vehicle: saline with Tween-80
[15] = dose: 100.0 mg/kg/injection, schedule: Q04DX002 (ip), vehicle: saline
[16] = dose: 100.0 mg/kg/injection, schedule: Q04DX003 (ip), vehicle: Klucel (hydroxypropylcellulose) (HPC)
[17] = dose: 200.0 mg/kg/injection, schedule: Q04DX003 (ip), vehicle: Klucel (hydroxypropylcellulose) (HPC)
[18] = dose: 400.0 mg/kg/injection, schedule: Q04DX003 (ip), vehicle: Klucel (hydroxypropylcellulose) (HPC)
[19] = dose: 50.0 mg/kg/injection, schedule: Q01DX009 (ip), vehicle: saline

Nc1nc(N)nc(N(CCO)CCO)n1
T/C [1]: 111 % of control
T/C [2]: 102 % of control
T/C [3]: 106 % of control

COc1cc(C=Nc2cc(Cl)c(O)c(Cl)c2)ccc1N(CCCl)CCCl
T/C (dose: 12.0 mg/kg/injection, schedule: Q04DX003 (ip), vehicle: saline): 204 % of control
T/C (dose: 17.0 mg/kg/injection, schedule: Q04DX003 (ip), vehicle: saline): 263 % of control
T/C (dose: 25.0 mg/kg/injection, schedule: Q04DX003 (ip), vehicle: saline): 100 % of control

CCOC1CC(=O)C2(C)C3CCC4(C)C(C(C)C5CC(C)=C(CO)C(=O)O5)CCC4C3CC3OC32C1O (configuration not stated)
T/C (dose: 12.67 mg/kg/injection, schedule: Q01DX009 (ip), vehicle: saline + alcohol): 101 % of control
T/C (dose: 25.35 mg/kg/injection, schedule: Q01DX009 (ip), vehicle: saline + alcohol): 104 % of control
T/C (dose: 50.7 mg/kg/injection, schedule: Q01DX009 (ip), vehicle: saline + alcohol): 92 % of control

COc1ccc([B-]23OCC[N+]2(CNC(=O)C2=C(O)C4(O)C(=O)C5=C(O)c6c(O)cccc6C(C)(O)C5CC4C(N(C)C)C2=O)CCO3)cc1 (configuration not stated)
T/C [1]: 105 % of control
T/C [2]: 105 % of control
T/C [3]: 105 % of control

COC(=O)C1C(NCc2ccccc2)=CC(C)(C)C(C(=O)OC)C1c1ccccc1 (configuration not stated)
T/C [1]: 103 % of control
T/C [2]: 100 % of control
T/C [3]: 97 % of control

CC(=O)Nc1nc2ncc(CN(C(C)=O)c3ccc(C4=NC(CCC(=O)O)C(=O)O4)cc3)nc2c(=O)[nH]1 (configuration not stated)
T/C (dose: 50.0 mg/kg/injection, schedule: Q04DX003 (ip), vehicle: alkali diluted with saline): 97 % of control
T/C (dose: 100.0 mg/kg/injection, schedule: Q04DX003 (ip), vehicle: alkali diluted with saline): 95 % of control
T/C (dose: 200.0 mg/kg/injection, schedule: Q04DX003 (ip), vehicle: alkali diluted with saline): 102 % of control

CCCCc1c(OCC)cc2n(CC)c3ccccc3n2c1=O
T/C [4]: 107 % of control
T/C [5]: 94 % of control
T/C [6]: 94 % of control

N#CC(Cc1ccc(CC(C#N)(c2ccccc2)c2ccccn2)cc1)(c1ccccc1)c1ccccn1 (configuration not stated)
T/C [4]: 100 % of control
T/C [5]: 91 % of control
T/C [6]: 86 % of control

CSc1nc2ncnn2c(=O)[nH]1
T/C [7]: 100 % of control
T/C [8]: 99 % of control
T/C [9]: 98 % of control
T/C [10]: 100 % of control
T/C [11]: 105 % of control
T/C [12]: 100 % of control
T/C [13]: 103 % of control

COc1cc(OC)c2c[n+](C)c3c4cc(OC)c(OC)cc4ccc3c2c1
T/C (dose: 20.0 mg/kg/injection, schedule: Q01DX009 (ip), vehicle: saline with Tween-80): 161 % of control
T/C (dose: 40.0 mg/kg/injection, schedule: Q01DX009 (ip), vehicle: saline with Tween-80): 169 % of control

CC1CN(C(=O)/C=C/C(=O)OC2CCCCC2)C(C)CN1C(=O)/C=C/C(=O)OC1CCCCC1 (configuration not stated)
T/C [1]: 98 % of control
T/C [2]: 94 % of control
T/C [3]: 97 % of control

O=S(=O)(O)CCCNC(CO)(CO)CO
T/C (dose: 60.0 mg/kg/injection, schedule: Q01DX005 (ip), vehicle: saline): 106 % of control
T/C (dose: 120.0 mg/kg/injection, schedule: Q01DX005 (ip), vehicle: saline): 107 % of control
T/C (dose: 240.0 mg/kg/injection, schedule: Q01DX005 (ip), vehicle: saline): 107 % of control

COc1ccc(C(=O)C(=O)c2ccc(OC)c(OC)c2)cc1OC
T/C [12]: 96 % of control
T/C [14]: 96 % of control
T/C (dose: 400.0 mg/kg/injection, schedule: Q01DX009 (ip), vehicle: saline with Tween-80): 92 % of control

CCOC(=O)c1c(-c2ccc3c(c2)OCO3)[nH][nH]c1=O
T/C [15]: 101 % of control
T/C (dose: 200.0 mg/kg/injection, schedule: Q04DX002 (ip), vehicle: saline): 99 % of control

CSC(=O)N(C)C(=O)Nc1cccc([N+](=O)[O-])c1
T/C [16]: 100 % of control
T/C [17]: 99 % of control
T/C [18]: 90 % of control

CC(C)N1CCN(c2ccc(OCC3COC(Cn4cncn4)(c4ccc(Cl)cc4Cl)O3)cc2)CC1 (configuration not stated)
T/C [1]: 100 % of control
T/C [2]: 101 % of control

C#Cc1cccc(N=Cc2cc(Cl)cc(C)c2O)c1
T/C [9]: 88 % of control
T/C [11]: 91 % of control
T/C [13]: 102 % of control

Cc1c(C)n(-c2ccccc2)c2nc(C)n(-c3ccccc3)c(=N)c12
T/C [1]: 101 % of control
T/C [2]: 100 % of control

O=C(NC(Cc1ccc(Cl)cc1)C(=O)O)c1ccc(I)cc1 (configuration not stated)
T/C [1]: 101 % of control
T/C [2]: 101 % of control
T/C [3]: 94 % of control

CC1(c2ccccc2)CCC(=O)NC1=O (configuration not stated)
T/C [4]: 102 % of control
T/C [5]: 101 % of control
T/C [6]: 106 % of control

CC(C)(C)/[N+]([O-])=C/C=C(/C=[N+](\[O-])C(C)(C)C)S(=O)(=O)c1ccccc1
T/C [4]: 96 % of control
T/C [5]: 90 % of control
T/C [6]: 90 % of control

COc1ccc2c(C)c(N=C=S)c(=O)oc2c1
T/C (dose: 50.0 mg/kg/injection, schedule: Q04DX003 (ip), vehicle: suspension in saline): 100 % of control
T/C (dose: 100.0 mg/kg/injection, schedule: Q04DX003 (ip), vehicle: suspension in saline): 100 % of control
T/C (dose: 200.0 mg/kg/injection, schedule: Q04DX003 (ip), vehicle: suspension in saline): 106 % of control

Cc1ccc(S(=O)(=O)N2c3ccccc3CCN2/C=C/c2ccccc2)cc1
T/C [1]: 100 % of control
T/C [2]: 93 % of control
T/C [3]: 96 % of control

Cc1ccc(-c2nc3scc(C)n3n2)cc1
T/C (dose: 60.0 mg/kg/injection, schedule: Q01DX005 (ip), vehicle: Klucel (hydroxypropylcellulose) (HPC)): 100 % of control
T/C (dose: 120.0 mg/kg/injection, schedule: Q01DX005 (ip), vehicle: Klucel (hydroxypropylcellulose) (HPC)): 96 % of control
T/C (dose: 240.0 mg/kg/injection, schedule: Q01DX005 (ip), vehicle: Klucel (hydroxypropylcellulose) (HPC)): 103 % of control

CC1(C)CC(=O)C(=N/O)/C(=N\NC(N)=S)C1
T/C [9]: 102 % of control
T/C [11]: 103 % of control
T/C [13]: 110 % of control

CCC(C)C(=O)Nc1ccccc1-c1ccccc1 (configuration not stated)
T/C [7]: 99 % of control
T/C [8]: 100 % of control
T/C [10]: 103 % of control
T/C [19]: 91 % of control

C/C=C/C[P+](Cc1ccccc1)(c1ccccc1)c1ccccc1
T/C (dose: 0.78 mg/kg/injection, schedule: Q01DX009 (ip), vehicle: saline): 105 % of control
T/C (dose: 1.56 mg/kg/injection, schedule: Q01DX009 (ip), vehicle: saline): 113 % of control
T/C (dose: 3.13 mg/kg/injection, schedule: Q01DX009 (ip), vehicle: saline): 107 % of control

Cn1cc/c(=N\N=c2/ccn(C)c3ccccc23)c2ccccc21
T/C (dose: 25.0 mg/kg/injection, schedule: Q04DX002 (ip), vehicle: saline): 101 % of control
T/C (dose: 50.0 mg/kg/injection, schedule: Q04DX002 (ip), vehicle: saline): 104 % of control
T/C [15]: 99 % of control and 103 % of control

CCOP(=O)(O)OCC
T/C [16]: 93 % of control
T/C [17]: 89 % of control
T/C [18]: 96 % of control

O=c1c2cc(F)ccc2nnn1-c1ccccc1
T/C (dose: 12.5 mg/kg/injection, schedule: Q01DX009 (ip), vehicle: suspension in saline): 88 % of control
T/C (dose: 25.0 mg/kg/injection, schedule: Q01DX009 (ip), vehicle: suspension in saline): 98 % of control
T/C [19]: 86 % of control
T/C (dose: 50.0 mg/kg/injection, schedule: Q01DX009 (ip), vehicle: suspension in saline): 107 % of control
T/C (dose: 200.0 mg/kg/injection, schedule: Q01DX009 (ip), vehicle: saline): 90 % of control

N#Cc1c(-c2ccccc2)c(-c2ccccc2)n(-c2ccccc2)c1N
T/C [10]: 104 % of control
T/C [12]: 104 % of control
T/C [14]: 104 % of control

CC(=O)Cc1nc2ccccc2s1
T/C (dose: 25.0 mg/kg/injection, schedule: Q04DX002 (ip), vehicle: saline with Tween-80): 104 % of control
T/C (dose: 50.0 mg/kg/injection, schedule: Q04DX002 (ip), vehicle: saline with Tween-80): 107 % of control
T/C (dose: 100.0 mg/kg/injection, schedule: Q04DX002 (ip), vehicle: saline with Tween-80): 102 % of control

CC(O)C(NC(=O)OCc1ccccc1)C(=O)NCC(=O)NCC(=O)OCc1ccccc1 (stereo not drawn) (Cbz-[ξT]-Gly-Gly-OBn)
T/C [9]: 106 % of control
T/C [11]: 100 % of control
T/C [13]: 106 % of control
